SMILES strings stand for the structures.

Consider four molecules from US7531547B2, “Diaminopyrimidines as P2X3 and P2X2/3 modulators” (Roche Palo Alto LLC, priority 2005, dated 2009).

In series [1] the target is T1, human P2X2/3 receptor (Homo sapiens, UniProt P56373+Q9UBL9).
T1 construct: expressed in transfected cells; host or cells: CHO-K1
T1 sequence (Q9UBL9 1-471): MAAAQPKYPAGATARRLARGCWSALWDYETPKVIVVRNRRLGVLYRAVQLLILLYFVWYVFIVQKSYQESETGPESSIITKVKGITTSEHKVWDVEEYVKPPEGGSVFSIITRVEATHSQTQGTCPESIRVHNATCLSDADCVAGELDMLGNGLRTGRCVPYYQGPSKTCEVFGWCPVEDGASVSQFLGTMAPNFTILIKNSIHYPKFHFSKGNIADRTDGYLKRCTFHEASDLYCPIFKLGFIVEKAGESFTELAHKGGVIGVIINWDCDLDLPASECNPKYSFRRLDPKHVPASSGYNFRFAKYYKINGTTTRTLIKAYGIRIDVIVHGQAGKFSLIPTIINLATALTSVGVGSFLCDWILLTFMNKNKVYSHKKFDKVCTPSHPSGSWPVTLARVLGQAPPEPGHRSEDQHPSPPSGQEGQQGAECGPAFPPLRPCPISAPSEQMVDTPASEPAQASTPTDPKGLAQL
T1 sequence (P56373 1-397): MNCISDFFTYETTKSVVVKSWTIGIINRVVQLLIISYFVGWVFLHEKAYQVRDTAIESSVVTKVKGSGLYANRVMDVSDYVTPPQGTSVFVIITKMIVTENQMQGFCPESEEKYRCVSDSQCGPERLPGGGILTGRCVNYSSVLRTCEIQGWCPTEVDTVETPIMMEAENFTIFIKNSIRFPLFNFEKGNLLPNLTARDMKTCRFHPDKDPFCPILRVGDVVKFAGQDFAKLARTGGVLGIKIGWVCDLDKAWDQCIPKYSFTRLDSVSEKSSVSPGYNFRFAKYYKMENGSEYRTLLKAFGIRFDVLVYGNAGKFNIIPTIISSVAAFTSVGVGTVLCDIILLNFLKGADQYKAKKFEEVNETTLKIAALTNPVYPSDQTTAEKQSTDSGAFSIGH
The experiment in a line: P2X2/3 FLIPR (Fluorometric Imaging Plate Reader) assay, CHO-K1 cells. In kind it is cell-based. Conditions: CHO-K1 cells transfected with human P2X2/3; agonist α,β-meATP 5 μM; Fluo-3 calcium fluorescence; read-out: pIC50 for the P2X2/3 receptor (converted). How it is done:
(§1) CHO-K1 cells were transfected with cloned rat P2X3 or human P2X2/3 receptor subunits and passaged in flasks. 18-24 hours before the FLIPR experiment, cells were released from their flasks, centrifuged, and resuspended in nutrient medium at 2.5×10^5 cells/ml. The cells were aliquoted into black-walled 96-well plates at a density of 50,000 cells/well and incubated overnight in 5% CO2 at 37° C. On the day of the experiment, cells were washed in FLIPR buffer (calcium- and magnesium-free Hank's balanced salt solution, 10 mM HEPES, 2 mM CaCl2, 2.5 mM probenecid; FB). Each well received 100 μl FB and 100 μl of the fluorescent dye Fluo-3 AM [2 μM final conc.]. […]
(§2) Test compounds (dissolved in DMSO at 10 mM and serially diluted with FB) or vehicle were added to each well (25 μl of a 4× solution) and allowed to equilibrate for 20 minutes at room temperature. The plates were then placed in the FLIPR and a baseline fluorescence measurement (excitation at 488 nm and emission at 510-570 nm) was obtained for 10 seconds before a 100 μl/well agonist or vehicle addition. […] Fluorescence was measured for an additional 2 minutes at 1 second intervals after agonist addition. A final addition of ionomycin (5 μM, final concentration) was made to each well of the FLIPR test plate to establish cell viability and maximum fluorescence of dye-bound cytosolic calcium. […]

In series [2] the target is T2, rat P2X3 receptor (Rattus norvegicus, UniProt P49654).
T2 construct: expressed in transfected cells; host or cells: CHO-K1
T2 sequence (P49654 1-397): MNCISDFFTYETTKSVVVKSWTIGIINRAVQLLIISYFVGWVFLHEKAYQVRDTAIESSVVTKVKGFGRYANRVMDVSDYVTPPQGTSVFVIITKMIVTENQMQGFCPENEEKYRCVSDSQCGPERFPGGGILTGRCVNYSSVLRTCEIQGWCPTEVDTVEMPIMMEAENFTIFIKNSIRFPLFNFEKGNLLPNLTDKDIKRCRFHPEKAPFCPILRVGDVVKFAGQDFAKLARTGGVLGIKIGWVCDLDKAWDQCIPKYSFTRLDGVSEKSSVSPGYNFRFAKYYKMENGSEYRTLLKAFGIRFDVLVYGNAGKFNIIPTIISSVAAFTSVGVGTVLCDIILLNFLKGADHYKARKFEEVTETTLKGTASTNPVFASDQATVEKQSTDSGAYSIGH
The experiment in a line: P2X3 FLIPR (Fluorometric Imaging Plate Reader) assay, CHO-K1 cells. To be noted: CHO-K1 cells transfected with rat P2X3; agonist α,β-meATP 1 μM; Fluo-3 calcium fluorescence; read-out: pIC50 for the P2X3 receptor (converted). Type of series: cell-based. On the procedure:
as §1, §2

What is called melting point is the temperature of the solid-liquid transition. In turn, `C#Cc1cc(Oc2cnc(N)nc2N)c(C#C)cc1OC` [Compound 25, 5-(2,5-Diethynyl-4-methoxy-phenoxy)-pyrimidine-2,4-diamine] displayed a melting point of 163.2 to 164.1 °C. The molecule `COc1cc(C(C)C)c(Oc2cnc(N)nc2N)cc1C#CC1CC1` [Compound 19, 5-(5-Cyclopropylethynyl-2-isopropyl-4-methoxy-phenoxy)-pyrimidine-2,4-diamine] yielded a melting point of 225.5 to 226.8 °C. As for `C#Cc1cc(Oc2cnc(N)nc2N)c(C(C)C)cc1O` [4-(2,4-Diamino-pyrimidin-5-yloxy)-2-ethynyl-5-isopropyl-phenol], the IC50 in series [1] was roughly 10.2 nM; in series [2] it was roughly 5.75 nM. The molecule `C#Cc1ccc(I)c(Oc2cnc(N)nc2N)c1` [Compound 27, 5-(5-Ethynyl-2-iodo-phenoxy)-pyrimidine-2,4-diamine] gave a melting point of 156 to 159 °C.
